Experimental data as given in paper PMC8745314, “Novel Tetrazole-Based Antimicrobial Agents Targeting Clinical Bacteria Strains: Exploring the Inhibition of Staphylococcus aureus DNA Topoisomerase IV and Gyrase” (International Journal of Molecular Sciences, 2021).

How the values were obtained:
S. aureus DNA gyrase = S. aureus DNA gyrase (Staphylococcus aureus, UniProt P0A0K8+P20831); assay: DNA gyrase supercoiling assay; format: biochemical; conditions: pBR322, read-out: IC50 ± S.E.M. for DNA Gyrase (converted)
S. aureus DNA gyrase, sequence (P0A0K8 whole entry): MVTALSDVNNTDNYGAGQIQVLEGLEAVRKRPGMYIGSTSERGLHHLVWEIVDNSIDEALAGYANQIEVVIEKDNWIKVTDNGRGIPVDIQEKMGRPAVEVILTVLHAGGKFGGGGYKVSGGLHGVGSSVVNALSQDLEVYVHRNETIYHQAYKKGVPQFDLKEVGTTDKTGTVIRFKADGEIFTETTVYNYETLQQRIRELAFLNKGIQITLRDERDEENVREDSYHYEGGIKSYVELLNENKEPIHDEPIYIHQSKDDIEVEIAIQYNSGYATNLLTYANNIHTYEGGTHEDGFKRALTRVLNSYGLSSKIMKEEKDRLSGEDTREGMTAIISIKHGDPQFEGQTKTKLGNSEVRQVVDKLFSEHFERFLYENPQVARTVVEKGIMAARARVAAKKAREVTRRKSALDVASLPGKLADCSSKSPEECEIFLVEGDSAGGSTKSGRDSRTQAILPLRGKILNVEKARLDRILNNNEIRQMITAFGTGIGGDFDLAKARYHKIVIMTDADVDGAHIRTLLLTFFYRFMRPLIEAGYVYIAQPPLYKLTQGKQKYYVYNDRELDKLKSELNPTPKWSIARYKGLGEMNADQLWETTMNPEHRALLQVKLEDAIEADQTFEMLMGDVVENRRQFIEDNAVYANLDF
S. aureus DNA gyrase, sequence (P20831 whole entry): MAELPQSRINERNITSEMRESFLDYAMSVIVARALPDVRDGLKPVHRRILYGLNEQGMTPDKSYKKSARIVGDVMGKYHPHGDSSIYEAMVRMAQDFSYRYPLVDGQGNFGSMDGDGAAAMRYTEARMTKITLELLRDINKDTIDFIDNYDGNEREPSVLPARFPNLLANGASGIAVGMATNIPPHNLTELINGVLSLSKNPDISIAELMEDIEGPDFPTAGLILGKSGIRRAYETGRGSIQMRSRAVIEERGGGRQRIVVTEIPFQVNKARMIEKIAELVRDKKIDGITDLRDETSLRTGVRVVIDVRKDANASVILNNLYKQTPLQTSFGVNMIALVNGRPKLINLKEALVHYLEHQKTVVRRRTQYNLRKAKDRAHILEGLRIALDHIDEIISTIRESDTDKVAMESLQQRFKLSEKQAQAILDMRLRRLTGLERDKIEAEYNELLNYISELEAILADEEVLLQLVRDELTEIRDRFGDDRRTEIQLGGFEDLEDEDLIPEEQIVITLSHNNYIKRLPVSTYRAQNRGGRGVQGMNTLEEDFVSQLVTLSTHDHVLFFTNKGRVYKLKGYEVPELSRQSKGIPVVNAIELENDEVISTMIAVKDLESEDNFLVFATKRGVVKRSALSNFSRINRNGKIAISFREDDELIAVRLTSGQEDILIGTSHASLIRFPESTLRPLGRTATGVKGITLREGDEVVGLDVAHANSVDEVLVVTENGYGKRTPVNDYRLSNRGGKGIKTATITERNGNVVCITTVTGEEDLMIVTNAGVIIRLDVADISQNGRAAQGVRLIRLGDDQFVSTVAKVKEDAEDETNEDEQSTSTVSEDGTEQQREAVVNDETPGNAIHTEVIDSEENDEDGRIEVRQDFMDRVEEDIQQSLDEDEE
Protocol: (§1) Description related to conducted biological studies including cell culture, suitable conditions, and methodology was presented in our previous paper.
Figure 2 The influence of tested compounds on S. aureus DNA gyrase activity. Decreasing amounts of 1, 2, or 3 were incubated with supercoiled pBR322 plasmid DNA (500 ng) and run-on agarose gel. Lane 1: S. aureus DNA gyrase assay with DMSO (control). Lane: 2–5: compound 3 at concentrations 64, 32, 8, 2 μg/mL, respectively. Lane: 6–9: compound 2 at concentrations 64, 32, 8, 2 μg/mL, respectively. Lane: 10–13: compound 1 at concentrations 64, 32, 8, 2 μg/mL, respectively.

[1] = system: standard bacteria strains; assay: MIC ranges over the panel of standard strains; format: cell-based
Protocol: All synthesized compounds were tested in vitro against a set of bacteria, including representative standard Gram-positive and Gram-negative rods. Compounds were screened for their minimal inhibitory concentrations (MICs). […] These three compounds were also found to be good inhibitors of the growth of Gram-negative rods: […] The antimicrobial assays were conducted using reference strains of bacteria derived from international microbe collections: American Type Culture Collection (ATCC) and National Collection of Type Culture (NCTC). The following standard strains of bacteria were used: Gram-positive-Staphylococcus aureus NCTC 4163, Staphylococcus aureus ATCC 25923, Staphylococcus aureus ATCC 6538, Staphylococcus aureus ATCC 29213, Staphylococcus epidermidis ATCC 12228, Staphylococcus epidermidis ATCC 35984, Gram-negative: Escherichia coli ATCC 25922, Pseudomonas aeruginosa ATCC 15442. Clinical strains of bacteria used in this study: Gram-positive: Staphylococcus epidermidis 5253, Staphylococcus epidermidis 4243, Staphylococcus aureus […], Staphylococcus aureus […] and Gram-negative: Escherichia coli 520, Escherichia coli 600, Klebsiella pneumoniae 510 and Pseudomonas aeruginosa 659 were obtained from the collection of the Department of Pharmaceutical Microbiology, Medical University of Warsaw, Poland and they were isolated from different biological materials taken from the patients hospitalized in the Warsaw Medical University hospitals. Antimicrobial activity was examined by the minimal inhibitory concentration (MIC) method under standard procedures provided by CLSI with some modifications. MIC was determined by the two-fold serial broth microdilution method in 96-well microtitration plates using Mueller-Hinton II broth medium (Becton Dickinson, Franklin Lakes, NJ, USA). The final inoculum of all studied bacteria was 10^6 CFU/mL (colony forming unit per milliliter). The stock solution of tested compounds was prepared in dimethyl sulfoxide (DMSO) and diluted to a maximum of 1% of solvent content with a sterile medium.

[2] = target: S. aureus topoisomerase IV (Staphylococcus aureus, UniProt P0C1S7+P0C1U9); assay: Topoisomerase IV decatenation assay; format: biochemical; conditions: decatenation of kinetoplast DNA, read-out: IC50 ± S.E.M. for Topoisomerase IV (converted)
S. aureus topoisomerase IV, sequence (P0C1S7 whole entry): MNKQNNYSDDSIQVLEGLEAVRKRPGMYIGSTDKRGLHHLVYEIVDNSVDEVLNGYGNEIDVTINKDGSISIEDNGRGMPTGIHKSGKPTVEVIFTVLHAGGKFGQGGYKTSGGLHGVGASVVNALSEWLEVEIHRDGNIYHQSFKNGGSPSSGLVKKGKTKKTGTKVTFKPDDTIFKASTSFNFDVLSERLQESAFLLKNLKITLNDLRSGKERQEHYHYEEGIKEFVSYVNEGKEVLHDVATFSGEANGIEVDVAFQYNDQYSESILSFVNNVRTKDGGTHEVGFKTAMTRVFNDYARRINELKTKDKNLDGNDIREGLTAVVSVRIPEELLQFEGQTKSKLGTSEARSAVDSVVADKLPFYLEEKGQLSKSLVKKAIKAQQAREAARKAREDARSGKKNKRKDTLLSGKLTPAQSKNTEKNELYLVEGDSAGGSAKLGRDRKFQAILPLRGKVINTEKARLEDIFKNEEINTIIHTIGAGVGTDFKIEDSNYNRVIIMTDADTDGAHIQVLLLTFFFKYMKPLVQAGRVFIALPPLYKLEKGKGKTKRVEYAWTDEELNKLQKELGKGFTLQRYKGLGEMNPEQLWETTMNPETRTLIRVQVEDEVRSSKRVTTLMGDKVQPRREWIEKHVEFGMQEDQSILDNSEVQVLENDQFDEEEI
S. aureus topoisomerase IV, sequence (P0C1U9 whole entry): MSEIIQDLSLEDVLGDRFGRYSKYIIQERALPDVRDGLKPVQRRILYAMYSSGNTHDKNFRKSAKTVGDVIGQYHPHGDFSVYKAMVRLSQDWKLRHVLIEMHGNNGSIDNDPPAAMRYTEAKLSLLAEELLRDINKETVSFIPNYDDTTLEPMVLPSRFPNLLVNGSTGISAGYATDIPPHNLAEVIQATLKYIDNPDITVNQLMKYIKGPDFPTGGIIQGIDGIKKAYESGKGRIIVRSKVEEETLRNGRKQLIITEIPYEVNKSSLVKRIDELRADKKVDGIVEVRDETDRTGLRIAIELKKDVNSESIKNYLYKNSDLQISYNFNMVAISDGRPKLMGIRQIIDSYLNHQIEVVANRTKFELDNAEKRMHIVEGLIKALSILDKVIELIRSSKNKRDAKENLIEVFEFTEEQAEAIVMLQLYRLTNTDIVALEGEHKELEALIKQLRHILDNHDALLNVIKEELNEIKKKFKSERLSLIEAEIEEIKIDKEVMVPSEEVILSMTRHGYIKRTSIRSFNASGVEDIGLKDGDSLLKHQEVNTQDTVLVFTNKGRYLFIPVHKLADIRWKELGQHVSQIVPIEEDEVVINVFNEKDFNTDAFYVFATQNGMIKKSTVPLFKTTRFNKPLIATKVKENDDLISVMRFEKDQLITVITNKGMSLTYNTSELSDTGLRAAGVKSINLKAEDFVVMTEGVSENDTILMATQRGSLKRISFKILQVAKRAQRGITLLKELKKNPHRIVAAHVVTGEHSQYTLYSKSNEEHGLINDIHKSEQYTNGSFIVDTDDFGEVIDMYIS
Protocol: as §1
Figure 1 The effect of tested compounds on S. aureus topoisomerase IV activity. Decreasing amounts of 1, 2, or 3 were incubated with 200 ng kinetoplast DNA and run-on agarose gel. Lane: 1–5: compound 3 at concentrations 64, 32, 8, 2, 0.5 μg/mL, respectively. Lane: 6–10: compound 2 at concentrations 64, 32, 8, 2, 0.5 μg/mL, respectively. Lane: 11–15: compound 1 at concentrations 64, 32, 8, 2, 0.5 μg/mL, respectively.

[3] = Gram-negative rods: E. coli and P. aeruginosa (standard strains)
[4] = against standard Gram-positive Staphylococci

Row | SMILES | IC50 (S. aureus DNA gyrase) | MIC values, range [1, 3] | MIC values, range [1, 4] | IC50 [2]
1 | CC1=C(C)C2(C)CC1(C)C1C(=O)N(Nc3nnnn3-c3ccccc3Br)C(=O)C12 (stereo not drawn) [Compound 3, 2-((1-(2-Bromophenyl)-1H-tetrazol-5-yl)amino)-4,5,6,7-tetramethyl-3a,4,7,7a-tetrahydro-1H-4,7-methanoisoindole-1,3(2H)-dione] | 99.3 µM | 0.4 to 25.6 µg/mL | 0.1 to 3.2 µg/mL | 134 µM
2 | CC1=C(C)C2(C)CC1(C)C1C(=O)N(Nc3nnnn3-c3cccc(C(F)(F)F)c3)C(=O)C12 (stereo not drawn) [Compound 1, 4,5,6,7-Tetramethyl-2-((1-(3-(trifluoromethyl)phenyl)-1H-tetrazol-5-yl)amino)-3a,4,7,7a-tetrahydro-1H-4,7-methanoisoindole-1,3(2H)-dione] | 71.8 µM | 0.4 to 25.6 µg/mL | 0.1 to 3.2 µg/mL | 142 µM
3 | CC1=C(C)C2(C)CC1(C)C1C(=O)N(Nc3nnnn3-c3ccccc3Cl)C(=O)C12 (stereo not drawn) [Compound 2, 2-((1-(2-Chlorophenyl)-1H-tetrazol-5-yl)amino)-4,5,6,7-tetramethyl-3a,4,7,7a-tetrahydro-1H-4,7-methanoisoindole-1,3(2H)-dione] | 90.9 µM | 0.4 to 25.6 µg/mL | 0.1 to 3.2 µg/mL | 141 µM
